Measurements reported in article PMC9104013, “Role of Polyamine-Induced Dimerization of Antizyme in Its Cellular Functions” (International Journal of Molecular Sciences, 2022).

How the values were obtained:
[1] = tested on: +1 frameshifting of eukaryotic OAZ1 mRNA; assay: Bicistronic β-galactosidase/firefly luciferase +1 frameshift reporter assay; type: cell-based, S. cerevisiae IS532/44d
Source text: For this purpose, the earlier developed frameshift reporter system, which includes quadruple S. cerevisiae mutant strain IS532/44d, unable to synthesize and degrade polyamines due to deletion of genes FMS1, SPE1, SPE2, and PAA1, and the plasmids pAC98T-OAZ1-FS and pAC98T-OAZ1-Cont were used. Each of these plasmids bears the reporter gene encoding β-galactosidase and firefly luciferase gene fused with the fragment of eukaryotic OAZ1 containing frameshift site. The plasmid pAC98T-OAZ1-FS contains native eukaryotic OAZ1 fragment, so the efficiency of luciferase synthesis and enzymatic activity depend on the +1 frameshift event. The plasmid pAC98T-OAZ1-Cont contains the eukaryotic OAZ1 fragment with […] replaced by TGG tryptophan codon that enables constitutive synthesis of both β-galactosidase and luciferase whose activity is taken as 100%. Bicistronic assays for frameshifting were performed as described earlier with the following modifications. Yeast transformants of IS532/44d strain were grown on agar plates with the synthetic media containing 0.67% (w/v) Yeast Nitrogen Base without amino acids (Sigma), 2% (w/v) glucose, 2% (w/v) agar, mixture of 19 amino acids without leucine (2 mg/mL each), and adenine (2 mg/mL) at 30 °C for 5–7 days. Then, colonies of yeast transformants were grown in the synthetic media lacking leucine and polyamines for two days. Yeast cultures were diluted to OD600 = 0.1 in 5 mL of synthetic media lacking leucine and supplemented with either Spd, 1-MeSpd, 2-MeSpd, or 3-MeSpd, each at final concentrations of 0.25, 0.5, 1, 2, and 4 mM. Yeast cultures were grown to log phase (OD600 = 0.8–1.4) at 30 °C and harvested by centrifugation, and cell pellets were washed three times with water. Cell pellets were resuspended in 500 μL of buffer containing 60 mM NaH2PO4, 40 mM Na2HPO4, 10 mM KCl, 1 mM MgSO4, 50 mM 2-mercaptoethanol, and 10% glycerol and lysed by vortexing with acid-washed glass beads (Sigma). The lysates were centrifuged (15,000× g, 10 min, 4 °C), and the supernatants were used for β-galactosidase and firefly luciferase reporter gene assays. β-Galactosidase activity was analyzed using ο-nitrophenyl-β-D-galactopyranoside (Sigma) as the substrate in accordance with published protocol. Activity of firefly luciferase was analyzed in 96-well plates using Luciferase Assay System (Promega). Frameshift frequencies were calculated as described.

[2] = molecular target: T1, recombinant mOAZ1 protein (Mus musculus, UniProt P54369); assay: Electrophoresis of mOAZ1-Polyamine complex (0.01% SDS in running buffer); type: binding; conditions: 200 μM polyamine, 30 min, 20 °C, pH 7.5
T1 construct: Full-length mOAZ1 protein was successfully produced in E. coli; made in house; host or cells: Escherichia coli Rosetta (DE3)
Description: The recombinant mOAZ1 protein (1 μg/band) was incubated with 200 μM of a polyamine at room temperature for 30 min. Then the sample was quenched with a loading buffer (200 mM Tris-HCl, pH 6.8, 0.01% bromophenol blue, and 40% glycerol) and applied onto 12% polyacrylamide gel lacking SDS. Electrophoresis was carried out in a running buffer with decreased SDS concentration (25 mM Tris base; 250 mM glycine; and 0.01% SDS) at 70 V. The gel was stained with Coomassie R-250.

[3] = tested on: spermine synthase (SpmSy); set-up: method as in PMID 21639123; conditions: cited from earlier work
[4] = tested on: 72-mer-2'-O-Me-oligoribonucleotide L-OM, containing the +1 frameshift site, hairpin and pseudoknot of the mOAZ1 mRNA; assay: RNA melting point (UV thermal denaturation); type: binding, mouse; conditions: for Tm: 1 μM L-OM, 50 mM Tris-HCl pH 7.5, 50 mM NaCl
Description: UV thermal denaturation data were obtained on a Hitachi U-2900 spectrophotometer equipped with a Peltier temperature controller. The concentration of model 72-mer-2′-O-Me-oligoribonucleotide L-OM, containing the +1 frameshift site, hairpin, and pseudoknot of the mOAZ1 mRNA was 1 µM. Samples were dissolved in 50 mM Tris-HCl, pH 7.5 and 50 mM NaCl buffer. Concentration of oligonucleotide was determined after quantitating the samples by UV absorbance at λ = 260 nm. Samples were heated to 90 °C for 10 min then cooled slowly to room temperature and stored at 5 °C for at least 18 h before the measurements were performed. Denaturation curves were acquired at 260 nm for the duplexes at a rate of 0.5 °C/min, within a range of 30–90 °C. The Tm values were determined from polynomial fitting of the observed curves and taken as the temperatures corresponding to half-dissociation of complex. The first derivative of absorption with respect to temperature, dA/dT, of the melting curve was computer-generated by the GraphPad Prism 7.0 software and used for the determining of Tm.

DU145 cells = assay: Intracellular polyamine and analogue concentrations in DU145 cells (HPLC); type: cell-based; conditions: 4 h, 100 µM analogue, 1 mM AG
Description: The DU145 cell line was obtained from American Type Culture Collection, Manassas, VA, USA. OAZ1-overexpressing DU145 cells were generated as described earlier. The cells were cultured in humidified atmosphere at +37 °C, 10% CO2 in high-glucose Dulbecco’s Modified Eagle’s Medium supplemented with 10% heat-inactivated fetal bovine serum, 2 mM L-glutamine, and 50 μg/mL gentamycin. The cells were lysed in a buffer containing 50 mM potassium phosphate, pH 7.2, 0.1 mM EDTA, 0.1% Triton X-100, 1 mM dithiothreitol (DTT), and Complete EDTA-free protease inhibitor (Roche Diagnostics, Basel, Switzerland). Aliquots of the lysate were taken for polyamine measurement, and the rest was centrifuged at 13,000 rpm for 20 min at +4 °C. The supernatant was used for enzyme assays and Western blotting.
Polyamines were measured with HPLC according to the published method. Acid-precipitated pellets were dissolved to 0.1 M NaOH, and the amount of DNA was measured using the PicoGreen reagent (Invitrogen) according to manufacturer’s instructions using dilutions of calf thymus DNA (Sigma-Aldrich) as standard curve. Protein concentrations were measured using Bio-Rad protein kit with dilutions of bovine serum albumin (Bio-Rad, Hercules, CA, USA) as standards. ODC activities were measured from the cytosolic fractions as described earlier. For immunoblotting of OAZ1, 20–50 μg of total protein was separated on a 15% SDS-polyacrylamide gel, transferred to a membrane (Immobilon FL, Millipore, Burlington, MA, USA), and immunoblotted with rabbit anti-OAZ1 antibody (a kind gift from Prof. Olli Jänne, University of Helsinki, Finland) and rabbit antiactin (Santa Cruz Biotechnology, cat no sc-1616, used at 1:1000 dilution in 5% nonfat dry milk/PBS-Tween). The secondary antibody used was goat antirabbit (Santa Cruz Biotechnology, Dallas, TX, USA, cat no sc-2004, used at 1:10,000 dilution).

[5] = polyamine concentration 20 μM, without polyamine 65.5±0.6

T1 sequence (P54369 whole entry): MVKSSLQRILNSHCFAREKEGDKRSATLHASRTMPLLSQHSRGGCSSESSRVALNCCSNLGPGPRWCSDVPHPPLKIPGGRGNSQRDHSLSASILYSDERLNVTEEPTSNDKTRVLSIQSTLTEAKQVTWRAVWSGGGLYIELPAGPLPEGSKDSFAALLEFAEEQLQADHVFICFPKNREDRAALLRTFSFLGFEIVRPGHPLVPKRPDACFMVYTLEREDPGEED

CC(N)CCNCCCCN (stereo not shown) [1-MeSpd]
Frameshifting activity ([1]; 0.25 mM in medium): about the same as Spd
Frameshifting activity ([1]; 2.0 mM and 4.0 mM in medium): weaker inducers of the frameshifting than Spd
Formation of (mOAZ1)2-Polyamine complex / dimerization [2]: dimeric and monomeric complexes
Substrate of spermine synthase (SpmSy) [3]: is a substrate of spermine synthase
Tm [4, 5]: 73.0±0.4 °C
Tm ([4]; polyamine concentration 50 μM): 74.0±0.3 °C
Tm ([4]; polyamine concentration 200 μM): 80.2±0.6 °C
Intracellular Analogue (DU145 cells): 170 ± 9.7 pmol/µg DNA
Intracellular N1-AcSpd (DU145 cells): 7.1 ± 0.2 pmol/µg DNA
Intracellular Put (DU145 cells): 9.5 ± 0.5 pmol/µg DNA
Intracellular Spd (DU145 cells): 62.0 ± 3.9 pmol/µg DNA
Intracellular Spm (DU145 cells): 74.0 ± 7.2 pmol/µg DNA
Spd + MeSpd (DU145 cells): 232 pmol/µg DNA
Spd + Spm + MeSpd (DU145 cells): 306 pmol/µg DNA
Total polyamines (DU145 cells): 323 pmol/µg DNA

CC(CN)CNCCCCN (stereo not shown) [2-MeSpd]
Frameshifting activity ([1]; all concentrations tested (0.25-4 mM)): substantially weaker inducer of +1 frameshift event than the other compounds
Formation of (mOAZ1)2-Polyamine complex / dimerization [2]: only the band corresponding to mOAZ1 itself was observed
Substrate of spermine synthase (SpmSy) [3]: substrate of both SSAT and SpmSy
Tm lower compared with Spd and the other analogues [4]: 2–3 °C
Tm [4, 5]: 70.5±0.5 °C
Tm ([4]; polyamine concentration 50 μM): 73.4±0.4 °C
Tm ([4]; polyamine concentration 200 μM): 77.5±0.5 °C
Intracellular Analogue (DU145 cells): 126 ± 14.5 pmol/µg DNA
Intracellular N1-AcSpd (DU145 cells): 4.9 ± 0.3 pmol/µg DNA
Intracellular Put (DU145 cells): 21.1 ± 0.7 pmol/µg DNA
Intracellular Spd (DU145 cells): 70.2 ± 2.3 pmol/µg DNA
Intracellular Spm (DU145 cells): 83.5 ± 6.8 pmol/µg DNA
Spd + MeSpd (DU145 cells): 196 pmol/µg DNA
Spd + Spm + MeSpd (DU145 cells): 279 pmol/µg DNA
Total polyamines (DU145 cells): 306 pmol/µg DNA

CC(CCN)NCCCCN (stereo not shown) [3-MeSpd]
Frameshifting activity ([1]; 2.0 mM and 4.0 mM in medium): weaker inducers of the frameshifting than Spd
Formation of (mOAZ1)2-Polyamine complex / dimerization [2]: dimeric and monomeric complexes
Substrate of spermine synthase (SpmSy) [3]: not a substrate of either SSAT or SpmSy
Tm [4, 5]: 71.9±0.5 °C
Tm ([4]; polyamine concentration 50 μM): 75.2±0.4 °C
Tm ([4]; polyamine concentration 200 μM): 79.4±0.5 °C
Intracellular N1-AcSpd (DU145 cells): 5.9 ± 1.1 pmol/µg DNA
Intracellular Put (DU145 cells): 11.1 ± 0.2 pmol/µg DNA
Intracellular Spd (DU145 cells): 65.3 ± 3.9 pmol/µg DNA
Intracellular Spm (DU145 cells): 78.4 ± 5.8 pmol/µg DNA
Spd + MeSpd (DU145 cells): 168 pmol/µg DNA
Total polyamines (DU145 cells): 264 pmol/µg DNA

NCCCCNCCCN [Spd, spermidine]
Formation of (mOAZ1)2-Polyamine complex / dimerization [2]: induce dimerization of OAZ1
Tm [4, 5]: 73.7±0.6 °C
Tm ([4]; polyamine concentration 50 μM): 75.3±0.4 °C
Tm ([4]; polyamine concentration 200 μM): 79.7±1.1 °C
